In patent US9446061B2, “Composition containing antibiotics and lysophosphatidylcholine for boosting immunity or treatment of bacterial infections” (priority 2011, dated 2016):
Marks after values point to notes of the source that are not given here.

Key:
[1] = tested on: thymic CD3+, CD4+, CD8+ and TNF-α+ cells; assay: Immunohistochemistry of thymus (cortex and medulla) in CPA-treated mice; format: in vivo, ICR mice; details: for numbers of thymic cortex CD3+ cells, change compared to CPA control / numbers of thymic cortex CD4+ cells, change compared to CPA control / numbers of thymic cortex CD8+ cells, change compared to CPA control / numbers of thymic medulla CD3+ cells, change compared to CPA control / numbers of thymic medulla CD4+ cells, change compared to CPA control / numbers of thymic medulla CD8+ cells, change compared to CPA control / thymic cortex TNF-α+ cells, change compared to CPA control / thymic medulla TNF-α+ cells, change compared to CPA control: LPC 1, DW286 0.5, Mix 0.75 mg/kg; for CD3+ cells, Thymus: Cortex (IHC-Histomorphometry) / CD4+ cells, Thymus: Cortex (IHC-Histomorphometry) / CD8+ cells, Thymus: Cortex (IHC-Histomorphometry) / TNF-α+ cells, Thymus: Cortex (IHC-Histomorphometry) / CD3+ cells, Thymus: Medulla (IHC-Histomorphometry) / CD4+ cells, Thymus: Medulla (IHC-Histomorphometry) / CD8+ cells, Thymus: Medulla (IHC-Histomorphometry) / TNF-α+ cells, Thymus: Medulla (IHC-Histomorphometry): CPA-treated mice, Mean ± S.D., n = 9
Procedure: (§1) After deparraffinized, CD3 epitope retrievals were conducted in 10 mM Tris-1 mM EDTA Buffer (pH 9.0), CD4 and CD8 in 1 mM EDTA Buffer (pH 8.0), and TNF-α in 10 mM Citrate Buffer (pH 6.0) as previous methods. Primary anti-antibodies used in the invention were as following table.
(§2) The water bath with a staining dish, containing a buffer, was preheated until the temperature reached 95-100. The staining dish was placed at room temperature and the slides were cooled for 20 minutes. After epitope retrivals, sections were immunostained as following steps
(§3) First, the sections were incubated with methanol and 0.3% H2O2 for 30 min to block endogenous peroxidase activity at room temperature, and then rinsed three times in 0.01M phosphate buffered saline (PBS; pH 7.2) for 3 times. Then, the sections were incubated with the normal horse serum blocking solution (Vector Lab. Inc., CA, USA., dilution 1:100) for 1 hr at room temperature in a humidity chamber, to block non-specific binding of immunoglobulin, and then rinsed three times in 0.01M PBS. The sections were incubated with four types of primary antisera for 12 hrs at 4 in a humidity chamber, and then rinsed three times in 0.01M PBS. The sections were incubated with universal biotinylated secondary antibody for 1 hr at room temperature in a humidity chamber, and then rinsed three times in 0.01M PBS. The sections were incubated with ABC reagents (Vectastain Elite ABC Kit, Vector Lab. Inc., CA, USA. Dilution 1:50) for 1 hr at room temperature in a humidity chamber, and then rinsed three times in 0.01M PBS. The sections were incubated in the peroxidase substrate kit (Vector Lab. Inc., CA) for 30 seconds at room temperature, and then rinsed three times in 0.01M PBS. The sections were counterstained with the Mayer's hematoxylin solution, and then rinsed in running tap water for 30 minutes. The sections were dehydrated through 95% ethanol for 2 min and 100% ethanol for […], and then rinsed in xylene for 2 hrs. After that, the sections were observed using a cover slip with permanent mounting medium under the light microscope (Zeiss, Germany).
(§4) Histomorphometry—Among 1000 splenic or thymic cells, the numbers (N) of immunoreactive cells (CD3+, CD4+, CD8+, and TNF-α+) were observed as N/1000 splenocytes or thymocytes using automated image analysis. In thymus, the counts were conducted in the both cortex and medulla separately.

blood WBC = assay: Blood WBC numbers and differential counts in CPA-treated mice; format: in vivo, ICR mice; details: LPC 1, DW286 0.5, Mix 0.75 mg/kg; for Total WBC / WBC differentials: Basophils / WBC differentials: Eosinophils / WBC differentials: Lymphocytes / WBC differentials: Monocytes / WBC differentials: Neutrophils: blood at sacrifice
Procedure: Blood were collected at sacrifice of CPA-treated model from vena cava and total blood leukocyte numbers were calculated using counting chamber, diluting pipette and Türk solution as dilution solution. All numbers were calculated as ×10^3/mm^3. In addition, cell numbers of lymphocytes, eosinophils, neutrophils, monocytes and basophils were calculated among 100 total leukocytes in smear blood samples stained with Giemsa.

[2] = Body weight of CPA-CLP mice (Example 9); details: LPC 1, DW286 0.5, Mix 0.75 mg/kg
Procedure: In CPA-CLP model, body weight and mortalities were measured once a day for 5 days with automatic electronic balances (Sartorius Co., Ltd., USA), once a day for 2 days in CPA-treated model. All animals were overnight fasted at CPA dosing, CLP or initial dosing to reduce differences from feeding. In addition, body weight gains were calculated as follows:
CPA-CLP Model: Body weight at sacrifice—at CLP(5 days)
Then, mortalities, changes in thymus and spleen weights, changes in white blood cell (WBC) number, and changes in thymic and splenic CD3+, CD4+, CD8+, and TNF-α+ cell numbers, were evaluated together with changes in bone marrow polychromatic erythrocytes contain micronuclei (MNPCE) number.
Appropriate doses of candidate materials were dissolved in 5% human serum albumin, and subcutaneously dosed at 10 ml/kg (of body weight), 4 times 12-hr intervals from 6 hrs after CLP or 24 hrs after last CPA-dosing, respectively. In the INTACT, CPA, or CPA-CLP control groups, an equal volume of 5% human serum albumin was dosed by the same procedure.

[3] = tested on: splenic CD3+, CD4+, CD8+ and TNF-α+ cells; assay: Immunohistochemistry of spleen in CPA-treated mice; format: in vivo, ICR mice; details: for numbers of splenic CD3+ cells, change compared to CPA control / numbers of splenic CD4+ cells, change compared to CPA control / numbers of splenic CD8+ cells, change compared to CPA control / splenic TNF-α+ cells, change compared to CPA control: LPC 1, DW286 0.5, Mix 0.75 mg/kg; for CD3+ cells, Spleen (IHC-Histomorphometry) / CD4+ cells, Spleen (IHC-Histomorphometry) / CD8+ cells, Spleen (IHC-Histomorphometry) / TNF-α+ cells, Spleen (IHC-Histomorphometry): CPA-treated mice, Mean ± S.D., n = 9
Procedure: as §1, §2, §3, §4

CPA-CLP mice = assay: Mortality of CPA-CLP mice, LPC and DW286AA alone or combined (Example 9); s.c. 4 times 12-hr intervals from 6 hrs after CLP; format: in vivo, ICR mice; details: for Survival rate: LPC 1, DW286 0.5, Mix 0.75 mg/kg; for survival rates (survivors/total in brackets), Table 13: mg/kg: LPC 1, LPC + DW286 0.5 + 0.25, DW286/LPC 0.5/1.0, LPC/DW286 1.0/0.5, DW286 0.5
Text: CPA is well known as an immunosuppressive agent. […] Then, the abdomen was closed following the general procedure.

[4] = At First CPA dosing (overnight fasted)

## CON=C1CN(c2nc3c(cc2F)c(=O)c(C(=O)O)cn3C2CC2)CC1(C)CN.Cl (stereo not drawn) [DW286aa, 7-[3-(aminomethyl)-4-(methoxyimino)-3-methyltetrahydro-1H-1-pyrrolyl]-1-cyclopropyl-6-fluoro-4-oxo-1,4-dihydro[1,8]naphthyridine-3-carboxylic acid hydrochloric acid salt]
[1]
  numbers of thymic cortex CD3+ cells, change compared to CPA control: −9.16%
  numbers of thymic cortex CD4+ cells, change compared to CPA control: 21.74%
  numbers of thymic cortex CD8+ cells, change compared to CPA control: 33.33%
  numbers of thymic medulla CD3+ cells, change compared to CPA control: −33.33%
  numbers of thymic medulla CD4+ cells, change compared to CPA control: 27.27%
  numbers of thymic medulla CD8+ cells, change compared to CPA control: −22.22%
  thymic cortex TNF-α+ cells, change compared to CPA control: −13.040%
  thymic medulla TNF-α+ cells, change compared to CPA control: 0.00%
  CD3+ cells, Thymus: Cortex (IHC-Histomorphometry): 165.33 N/1000 splenocytes or thymocytes
  CD4+ cells, Thymus: Cortex (IHC-Histomorphometry): 3.11 N/1000 splenocytes or thymocytes
  CD8+ cells, Thymus: Cortex (IHC-Histomorphometry): 4.00 N/1000 splenocytes or thymocytes
  TNF-α+ cells, Thymus: Cortex (IHC-Histomorphometry): 2.22 N/1000 splenocytes or thymocytes
  CD3+ cells, Thymus: Medulla (IHC-Histomorphometry): 0.22 N/1000 splenocytes or thymocytes
  CD4+ cells, Thymus: Medulla (IHC-Histomorphometry): 1.78 N/1000 splenocytes or thymocytes
  CD8+ cells, Thymus: Medulla (IHC-Histomorphometry): 1.56 N/1000 splenocytes or thymocytes
  TNF-α+ cells, Thymus: Medulla (IHC-Histomorphometry): 0.00 N/1000 splenocytes or thymocytes
Blood WBC
  blood total WBC numbers, change compared to CPA control: −11.31%
  ratio of lymphocytes, change compared to CPA control: −23.56%
  ratio of monocytes, change compared to CPA control: 13.43%
  ratio of neutrophils, change compared to CPA control: −1.09%
  Total WBC: 0.41 ± 0.19 ×10^3/mm^3
  WBC differentials: Basophils: 0.89 ± 0.78%
  WBC differentials: Eosinophils: 0.22 ± 0.44%
  WBC differentials: Lymphocytes: 14.56 ± 9.75 %
  WBC differentials: Monocytes: 42.78 ± 17.33 %
  WBC differentials: Neutrophils: 41.56 ± 10.64 %
[2]; 1 day after CLP
  Body weight: 31.50 ± 1.34 g
[2]; 2 days after CLP
  Body weight: 29.88 ± 0.98 g
[2]; 3 days after CLP
  Body weight: 30.97 ± 0.99 g
[2]; At CLP (overnight fasted)
  Body weight: 33.77 ± 1.42 g
[2]; [4]
  Body weight: 34.32 ± 1.32 g
[3]
  numbers of splenic CD3+ cells, change compared to CPA control: −14.02%
  numbers of splenic CD4+ cells, change compared to CPA control: −10.82%
  numbers of splenic CD8+ cells, change compared to CPA control: −10.63%
  splenic TNF-α+ cells, change compared to CPA control: −13.840%
  CD3+ cells, Spleen (IHC-Histomorphometry): 55.89 N/1000 splenocytes or thymocytes
  CD4+ cells, Spleen (IHC-Histomorphometry): 41.22 N/1000 splenocytes or thymocytes
  CD8+ cells, Spleen (IHC-Histomorphometry): 45.78 N/1000 splenocytes or thymocytes
  TNF-α+ cells, Spleen (IHC-Histomorphometry): 40.11 N/1000 splenocytes or thymocytes
CPA-CLP mice; 1 day after CLP
  Survival rate: 100%
CPA-CLP mice; 1 day after dosing
  survival rates (survivors/total in brackets), Table 13: 100 (9/9)
CPA-CLP mice; 2 days after CLP
  Survival rate: 44.44%
CPA-CLP mice; 2 days after dosing
  survival rates (survivors/total in brackets), Table 13: 44 (4/9)
CPA-CLP mice; 3 days after CLP
  Survival rate: 33.33%
CPA-CLP mice; 3 days after dosing
  survival rates (survivors/total in brackets), Table 13: 33 (3/9)
CPA-CLP mice; 4 days after CLP
  Survival rate: 0%
CPA-CLP mice; 4 days after dosing
  survival rates (survivors/total in brackets), Table 13: 0 (0/9)
CPA-CLP mice; 5 days after CLP
  Survival rate: 0%
CPA-CLP mice; At CLP
  Survival rate: 100%
CPA-CLP mice; Dosing Day 0
  survival rates (survivors/total in brackets), Table 13: 100 (9/9)
CPA-CLP mice; Total
  Survival rate: 100%

## Lysophosphatidylcholine [LPC]
[1]
  numbers of thymic cortex CD3+ cells, change compared to CPA control: 328.69%
  numbers of thymic cortex CD4+ cells, change compared to CPA control: 408.70%
  numbers of thymic cortex CD8+ cells, change compared to CPA control: 11.11%
  numbers of thymic medulla CD3+ cells, change compared to CPA control: 12466.67%
  numbers of thymic medulla CD4+ cells, change compared to CPA control: −9.09%
  numbers of thymic medulla CD8+ cells, change compared to CPA control: −5.56%
  thymic cortex TNF-α+ cells, change compared to CPA control: 65.22%
  thymic medulla TNF-α+ cells, change compared to CPA control: 133.33%
  CD3+ cells, Thymus: Cortex (IHC-Histomorphometry): 780.22 ± 85.78 N/1000 splenocytes or thymocytes
  CD4+ cells, Thymus: Cortex (IHC-Histomorphometry): 13.00 ± 2.45*^,# N/1000 splenocytes or thymocytes
  CD8+ cells, Thymus: Cortex (IHC-Histomorphometry): 3.33 ± 1.22 N/1000 splenocytes or thymocytes
  TNF-α+ cells, Thymus: Cortex (IHC-Histomorphometry): 4.22 ± 1.20 N/1000 splenocytes or thymocytes
  CD3+ cells, Thymus: Medulla (IHC-Histomorphometry): 41.89 ± 10.23*^,# N/1000 splenocytes or thymocytes
  CD4+ cells, Thymus: Medulla (IHC-Histomorphometry): 2.22 ± 0.97 N/1000 splenocytes or thymocytes
  CD8+ cells, Thymus: Medulla (IHC-Histomorphometry): 1.89 ± 0.60 N/1000 splenocytes or thymocytes
  TNF-α+ cells, Thymus: Medulla (IHC-Histomorphometry): 1.33 ± 1.00 N/1000 splenocytes or thymocytes
Blood WBC
  blood total WBC numbers, change compared to CPA control: 25.00%
  ratio of lymphocytes, change compared to CPA control: 268.78%
  ratio of monocytes, change compared to CPA control: −85.27%
  ratio of neutrophils, change compared to CPA control: −51.07%
  Total WBC: 0.58 ± 0.14 ×10^3/mm^3
  WBC differentials: Basophils: 2.33 ± 1.22*^,## %
  WBC differentials: Eosinophils: 1.33 ± 1.12 %
  WBC differentials: Lymphocytes: 70.22 ± 9.90 %
  WBC differentials: Monocytes: 5.56 ± 3.13 %
  WBC differentials: Neutrophils: 20.56 ± 8.76 %
[2]; 1 day after CLP
  Body weight: 30.10 ± 1.23 g
[2]; 2 days after CLP
  Body weight: 29.47 ± 1.46 g
[2]; 3 days after CLP
  Body weight: 31.40 ± 0.28 g
[2]; At CLP (overnight fasted)
  Body weight: 32.98 ± 1.65 g
[2]; [4]
  Body weight: 34.53 ± 1.24 g
[3]
  numbers of splenic CD3+ cells, change compared to CPA control: 18.29%
  numbers of splenic CD4+ cells, change compared to CPA control: 136.54%
  numbers of splenic CD8+ cells, change compared to CPA control: 72.89%
  splenic TNF-α+ cells, change compared to CPA control: 36.75%
  CD3+ cells, Spleen (IHC-Histomorphometry): 76.89 ± 6.23*^,## N/1000 splenocytes or thymocytes
  CD4+ cells, Spleen (IHC-Histomorphometry): 109.33 ± 20.77*^,# N/1000 splenocytes or thymocytes
  CD8+ cells, Spleen (IHC-Histomorphometry): 88.56 ± 11.18*^,# N/1000 splenocytes or thymocytes
  TNF-α+ cells, Spleen (IHC-Histomorphometry): 63.67 ± 9.10*^,# N/1000 splenocytes or thymocytes
CPA-CLP mice; 1 day after CLP
  Survival rate: 55.55%
CPA-CLP mice; 1 day after dosing
  survival rates (survivors/total in brackets), Table 13: 56 (5/9)
CPA-CLP mice; 2 days after CLP
  Survival rate: 33.33%
CPA-CLP mice; 2 days after dosing
  survival rates (survivors/total in brackets), Table 13: 33 (3/9)
CPA-CLP mice; 3 days after CLP
  Survival rate: 22.22%
CPA-CLP mice; 3 days after dosing
  survival rates (survivors/total in brackets), Table 13: 22 (2/9)
CPA-CLP mice; 4 days after CLP
  Survival rate: 0%
CPA-CLP mice; 4 days after dosing
  survival rates (survivors/total in brackets), Table 13: 0 (0/9)
CPA-CLP mice; 5 days after CLP
  Survival rate: 0%
CPA-CLP mice; At CLP
  Survival rate: 100%
CPA-CLP mice; Dosing Day 0
  survival rates (survivors/total in brackets), Table 13: 100 (9/9)
CPA-CLP mice; Total
  Survival rate: 0%
